Non-standard residues stand in square brackets, D forms with d. No end group written: not given here. tri‑branched mPEG‑MAL 50 kDa = tri-branched maleimide-activated monomethoxy PEG, 50 kDa; Aib = CC(C)(N)C(=O)O
Experiments:
Type in all cases: in vivo
[1] = test system: obesity animal model (C57BL/6 mice, 60% high-fat diet); experiment: body weight, food intake and blood glucose in high-fat diet obesity animal model (Experimental Example 2); conditions: for Blood glucose / Body weight / Food intake: 20 nmol/kg s.c. once every other day; for Food intake: cumulative
Description: First, an obesity animal model was prepared by feeding a 60% high-fat diet to normal C57BL/6 mice (approximately 6 weeks old) for approximately 24 weeks, and increasing the body weights of the mice to approximately 50 g on average. Thereafter, the conjugate of Example 2 was administered by subcutaneous injection at a dose of 20 nmol/kg once every other day for 2 weeks. […] For 2 weeks when the drug was administered, the food intake, the blood glucose, and the body weights were measured once every other day at given points of time.
In this case, the body weights and the blood glucose were expressed in the percentage (%) on the basis of 100% before the administration (Day 0).

db/db mice [2] = experiment: blood glucose and body weight in db/db mice (Experimental Example 4)
Description: First of all, the conjugate of Example 2 was administered to 7-week-old db/db mice by subcutaneous injection at a dose of 20 nmol/kg once every other day for 12 days. For 12 days when the drug was administered, the changes in blood glucose and body weights were measured once every other day after the drug administration.

db/db mice [3] = experiment: ipGTT in db/db mice after 12-day administration; design: blood glucose in ipGTT: unit not given here; conditions: for blood glucose in ipGTT: db/db mice after 12 days of 20 nmol/kg s.c. once every other day
Description: (§1) Next, to perform an intraperitoneal glucose tolerance test (ipGTT), 2 g/kg of glucose was administered intraperitoneally after the 12-day administration of the drug, and a change in blood glucose with the elapse of time (0, 15, 30, 60, 90, and 120 minutes) was measured. To determine a degree of long-term change in average blood glucose level, a level of glycated hemoglobin (HbA1c) was also measured after the drug administration.

db/db mice [4] = experiment: glycated hemoglobin (HbA1c) in db/db mice after administration; conditions: db/db mice after administration of 20 nmol/kg s.c. once every other day; FIG. 3
Description: as §1

[5] = test system: obesity animal model (C57BL/6 mice, 60% high-fat diet); experiment: final body weight with different dose and dosing frequency in obesity model (Experimental Example 5); conditions: FIG. 4
Description: First, an obesity animal model was prepared by feeding a 60% high-fat diet to normal C57BL/6 mice (approximately 6 weeks old) for approximately 24 weeks, and increasing the body weights of the mice to approximately 50 g in average. After 2 weeks, the final body weights of the mice were measured.

[6] = test system: obesity animal model (C57BL/6 mice, 60% high-fat diet); experiment: blood glucose in obesity model, Examples 2 and 6 (Experimental Example 6); conditions: 20 nmol/kg s.c. once every other day for 2 weeks; FIG. 5
Description: To check a preventing or therapeutic effect of the conjugates of Examples 2 and 6, which had different amino acid sequences, on obesity or diabetes, an animal model of obesity was prepared by feeding a 60% high-fat diet to normal C57BL/6 mice (approximately 6 weeks old) for approximately 24 weeks, and increasing the body weights of the mice to approximately 50 g in average. Thereafter, each of the conjugates of Examples 2 or 6 was administered by subcutaneous injection at a dose of 20 nmol/kg once every other day for 2 weeks. As the control, PBS was administered instead of the conjugates of Examples. For 2 weeks when the conjugates of Examples 2 or 6 were administered, changes in blood glucose with time were measured. Also, to perform an intraperitoneal glucose tolerance test (ipGTT), 2 g/kg of glucose was administered intraperitoneally after the 2-week administration of the drug, and changes in blood glucose with the elapse of time (0, 15, 30, 60, 90, and 120 minutes) were measured.

[7] = test system: animal model of non-alcoholic fatty liver diseases (C57BL/6 mice, high-trans-fat diet); experiment: non-alcoholic fatty liver disease model, high-trans-fat diet (Experimental Example 8); conditions: 20 nmol/kg s.c. once every three days for 4 weeks, also lowered vs liraglutide
Description: First of all, a laboratory animal model of non-alcoholic fatty liver diseases was prepared by feeding a high-trans-fat diet, which contained 40% high fats, 20% fructose, and 2% cholesterol, to normal C57BL/6 mice (approximately 6 weeks old) for approximately 16 weeks. Thereafter, the conjugate of Example 2 was administered by subcutaneous injection at a dose of 20 nmol/kg once every three days for 4 weeks. […] After the 4-week experiment was completed, a level of serum cholesterol, the liver weights, and the hepatic triglycerides (hepatic TGs) were measured.

[8] = test system: animal model of non-alcoholic fatty liver diseases (C57BL/6 mice, high-trans-fat diet); experiment: liver biopsy and NAFLD activity score, high-trans-fat diet model (Experimental Example 9); conditions: 20 nmol/kg s.c. once every three days for 4 weeks
Description: After the experiment was conducted in the same manner as in Experimental Example 8, a liver biopsy was conducted and an NAFLD activity score (NAS) was measured to check a preventing or therapeutic effect on non-alcoholic fatty liver diseases. An experiment was performed in the same manner as in Experimental Example 8, after the 4-week administration of the conjugate of Example 2, the mouse livers were extracted, embedded in paraffin, and then microtomed into thin slices. Thereafter, a hematoxylin & eosin (H&E) stain and an oil-red-O stain were conducted.

[9] = 20 nmol/kg s.c. once every other day for 2 weeks
[10] = day 0 (before administration = 100%)
[11] = 20 nmol/kg s.c. once every other day for 12 days
[12] = day 0, 20 nmol/kg s.c. once every other day
[13] = day 2, 20 nmol/kg s.c. once every other day
[14] = day 4, 20 nmol/kg s.c. once every other day
[15] = day 6, 20 nmol/kg s.c. once every other day
[16] = day 8, 20 nmol/kg s.c. once every other day
[17] = day 10, 20 nmol/kg s.c. once every other day
[18] = day 12, 20 nmol/kg s.c. once every other day

Example 2: Conjugate of polypeptide H(Aib)QGTFTSDYSKYLDEQAAKEFVQWLMNTC (SEQ ID NO. 2) and tri-branched mPEG-MAL (MW: 50 kDa) (H[Aib]QGTFTSDYSKYLDEQAAKEFVQWLMNTC(tri‑branched mPEG‑MAL 50 kDa); lactam (positions not given here); not fully specified (bridges); printed as H(Aib)QGTFTSDYSKYLDEQAAKEFVQWLMNTC)
level of blood glucose reduced compared to before the administration [1, 9]: approximately 80%
Blood glucose [1, 10]: 100%
Body weight [1, 10]: 100%
Food intake ([1]; day 0): 0 g
Blood glucose ([1]; day 2, % of Day 0): 87%
Body weight ([1]; day 2, % of Day 0): 97%
Food intake ([1]; day 2): 4 g
Blood glucose ([1]; day 4, % of Day 0): 75%
Body weight ([1]; day 4, % of Day 0): 94%
Food intake ([1]; day 4): 8 g
Blood glucose ([1]; day 6, % of Day 0): 48%
Body weight ([1]; day 6, % of Day 0): 89%
Food intake ([1]; day 6): 11 g
Blood glucose ([1]; day 8, % of Day 0): 32%
Body weight ([1]; day 8, % of Day 0): 82%
Food intake ([1]; day 8): 13 g
Blood glucose ([1]; day 10, % of Day 0): 35%
Body weight ([1]; day 10, % of Day 0): 74%
Food intake ([1]; day 10): 15 g
Blood glucose ([1]; day 12, % of Day 0): 32%
Body weight ([1]; day 12, % of Day 0): 68%
Food intake ([1]; day 12): 17 g
Blood glucose ([1]; day 14, % of Day 0): 18%
Body weight ([1]; day 14, % of Day 0): 61%
body weight vs non-treated group (db/db mice [2]; [11]): body weight loss was observed
level of blood glucose vs non-treated group (db/db mice [2]; [11]): a level of blood glucose was lowered
Blood glucose (db/db mice [2]; [12]): 100%
Body weight (db/db mice [2]; [12]): 100%
Blood glucose (db/db mice [2]; [13]): 88%
Body weight (db/db mice [2]; [13]): 96%
Blood glucose (db/db mice [2]; [14]): 34%
Body weight (db/db mice [2]; [14]): 91%
Blood glucose (db/db mice [2]; [15]): 25%
Body weight (db/db mice [2]; [15]): 86%
Blood glucose (db/db mice [2]; [16]): 17%
Body weight (db/db mice [2]; [16]): 84%
Blood glucose (db/db mice [2]; [17]): 17%
Body weight (db/db mice [2]; [17]): 79%
Blood glucose (db/db mice [2]; [18]): 16%
Body weight (db/db mice [2]; [18]): 76%
blood glucose in ipGTT (db/db mice [3]; 0 min after 2 g/kg glucose i.p.): 63
blood glucose in ipGTT (db/db mice [3]; 15 min after 2 g/kg glucose i.p.): 190
blood glucose in ipGTT (db/db mice [3]; 30 min after 2 g/kg glucose i.p.): 246
blood glucose in ipGTT (db/db mice [3]; 60 min after 2 g/kg glucose i.p.): 341
blood glucose in ipGTT (db/db mice [3]; 90 min after 2 g/kg glucose i.p.): 356
blood glucose in ipGTT (db/db mice [3]; 120 min after 2 g/kg glucose i.p.): 396
glucose tolerance in ipGTT (db/db mice [3]; db/db mice after 12-day administration): higher glucose tolerance than the non-treated group
level of glycated hemoglobin (HbA1c) (db/db mice [4]): significantly lower a level of glycated hemoglobin
effect on body weight loss [5, 9]: significant effect on the body weight loss
effect on body weight loss with extended interval ([5]; 40 nmol/kg s.c. once a week for 2 weeks): the same effect on the body weight loss
dose dependence of body weight loss ([5]; 20 vs 40 nmol/kg s.c. once every other day for 2 weeks): dose-dependent response
level of blood glucose vs control [6]: a level of blood glucose was lowered
level of serum cholesterol vs non-treated group ([7]; FIG. 10): significantly lowered
liver weights vs non-treated group ([7]; FIG. 11): significantly lowered
hepatic triglycerides vs non-treated group ([7]; FIG. 12): significantly lowered
hepatic steatosis vs non-treated group and positive control ([8]; FIG. 13): significantly reduced
NAFLD activity score (NAS) vs non-treated group and positive control ([8]; FIG. 14): significantly reduced
